Laboratory results as given in publication PMC5672800 (Journal of medicinal chemistry, 2017).
Each block holds one compound with its values, some of them ahead of it.

Assays:
human MC3R = conditions: cited from earlier work
mMC3R [1] = target: T1, mMC3R (Mus musculus, UniProt P33033); assay: 125I-NDP-MSH competitive binding assay at mMC3R; conditions: vs Ac-His-DPhe-Arg-Trp-NH2; negative = more potent than control
mMC4R = mMC4R (Mus musculus, UniProt P56450); conditions: read-out: mMC4R EC50; cited from earlier work
Chain of mMC4R (P56450 whole entry): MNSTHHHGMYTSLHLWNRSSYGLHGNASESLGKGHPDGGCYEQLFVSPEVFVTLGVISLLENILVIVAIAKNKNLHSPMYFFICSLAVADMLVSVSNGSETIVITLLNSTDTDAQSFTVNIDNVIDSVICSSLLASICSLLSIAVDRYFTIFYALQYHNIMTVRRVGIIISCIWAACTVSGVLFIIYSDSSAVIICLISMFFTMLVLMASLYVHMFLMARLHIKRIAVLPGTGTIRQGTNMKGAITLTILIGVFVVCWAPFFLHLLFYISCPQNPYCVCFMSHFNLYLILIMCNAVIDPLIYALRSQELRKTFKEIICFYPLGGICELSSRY

mMC3R [2] = target: T1, mMC3R; conditions: read-out: mMC3R EC50; cited from earlier work
human MC4R = conditions: cited from earlier work
hMC4R = conditions: cited from earlier work

T1 sequence (P33033 whole entry): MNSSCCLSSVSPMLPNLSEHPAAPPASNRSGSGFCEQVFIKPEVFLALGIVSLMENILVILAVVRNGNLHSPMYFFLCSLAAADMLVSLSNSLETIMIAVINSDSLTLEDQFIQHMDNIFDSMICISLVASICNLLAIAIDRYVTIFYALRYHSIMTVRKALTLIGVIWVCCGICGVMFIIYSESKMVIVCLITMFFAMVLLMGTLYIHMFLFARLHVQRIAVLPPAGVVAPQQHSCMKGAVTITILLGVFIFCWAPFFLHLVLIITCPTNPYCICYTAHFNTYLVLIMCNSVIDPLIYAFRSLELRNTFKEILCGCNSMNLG

Compound: CC(=O)N[C@@H](Cc1c[nH]cn1)C(=O)N[C@H](Cc1ccccc1)C(=O)N[C@@H](CCCNC(=N)N)C(=O)N[C@@H](Cc1c[nH]c2ccccc12)C(N)=O [Ac-His-DPhe-Arg-Trp-NH2]
IC50 (human MC3R; read-out: human MC3R IC50, previously reported): > 10000 nM

mMC3R (IC50) Fold Diff. (mMC3R [1]): -115
Compound: CC(=O)N[C@@H](CCCNC(=N)N)C(=O)N[C@@H](CCCNC(=N)N)C(=O)N[C@H](Cc1ccc(I)cc1)C(=O)N[C@H](Cc1ccc2ccccc2c1)C(N)=O [Compound 41, Ac-Arg-Arg-(pI)DPhe-DNal(2′)-NH2]

Compound: Ac-Ser-Tyr-Ser-Nle-Glu-His-Arg-Phe-Phe-Gly-Lys-Pro-Val-NH2 (SYSXEHRFFGKPV; HELM PEPTIDE1{[ac].S.Y.S.[Nle].E.H.R.F.F.G.K.P.V.[am]}$$$$V2.0; SMILES CCCC[C@H](NC(=O)[C@H](CO)NC(=O)[C@H](Cc1ccc(O)cc1)NC(=O)[C@H](CO)NC(C)=O)C(=O)N[C@@H](CCC(=O)O)C(=O)N[C@@H](Cc1c[nH]cn1)C(=O)N[C@@H](CCCNC(=N)N)C(=O)N[C@@H](Cc1ccccc1)C(=O)N[C@@H](Cc1ccccc1)C(=O)NCC(=O)N[C@@H](CCCCN)C(=O)N1CCC[C@H]1C(=O)N[C@H](C(N)=O)C(C)C)
EC50 (mMC4R): 930 nM | EC50 (mMC3R [2]): 480 nM

Compound: Tic-(pI)DPhe-Arg-Trp-NH2
binding to human MC4R (human MC4R): 0.30 nM | hMC4R agonist activation with respect to maximal response (hMC4R): > 35% | hMC4R antagonist pA2 (hMC4R): 9.10 | Ki (hMC4R; read-out: hMC4R antagonist Ki): 0.79 nM | binding to human MC3R (human MC3R): 75 nM
